Measurements taken from patent publication US20260053778A1, “USE OF NOVEL PPAR ACTIVITY MODULATOR FOR PREVENTION, AMELIORATION OR TREATMENT OF DEGENERATIVE BRAIN DISEASES” (POSTECH RESEARCH AND BUSINESS DEVELOPMENT FOUNDATION, priority 2022, published 2026).

Experiments:
PPARα = biological target: T1, PPARα (Homo sapiens, UniProt Q07869); test: GAL4-transactivation assay in HEK293A cells, PPARα; assay type: cell-based; conditions: GAL4 reporter, 24 h, compared with WY14643
T1 construct: expressed in transfected cells; host or cells: HEK293A
T1 sequence (Q07869 1-468): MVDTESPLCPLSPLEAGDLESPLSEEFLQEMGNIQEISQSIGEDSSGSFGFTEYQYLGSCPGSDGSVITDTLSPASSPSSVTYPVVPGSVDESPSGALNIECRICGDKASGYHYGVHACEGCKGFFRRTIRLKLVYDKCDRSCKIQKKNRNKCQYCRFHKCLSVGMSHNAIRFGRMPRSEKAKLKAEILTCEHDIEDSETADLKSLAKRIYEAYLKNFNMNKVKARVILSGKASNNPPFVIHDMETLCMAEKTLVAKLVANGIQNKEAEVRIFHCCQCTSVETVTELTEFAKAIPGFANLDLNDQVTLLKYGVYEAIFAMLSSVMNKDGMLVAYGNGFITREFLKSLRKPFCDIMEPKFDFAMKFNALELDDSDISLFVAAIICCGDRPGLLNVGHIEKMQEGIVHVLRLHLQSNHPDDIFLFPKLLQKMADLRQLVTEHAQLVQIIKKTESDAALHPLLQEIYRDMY
Protocol: A GAL4-transactivation assay experiment was performed to determine whether the drug was bound to the PPAR ligand binding site. HEK293A cells were transfected with GAL4-reporter plasmid and pGL4.74 (Promega, Madison, WI, USA) as an internal standard via electroporation using the Neon Transfection System (Invitrogen, Carlsbad, CA, USA). All vectors were kindly provided by Professor Kanno Yuichiro, Toho University, Japan. After overnight culture, cells were treated with DTMB and each positive control compound for 24 h. Cells were then harvested, resuspended in luciferase lysis buffer (Promega), and incubated on ice for 10 min. Cell debris was removed by centrifugation at 20,000×g, 4° C. for 10 min, and the supernatant was used for the luciferase assay. Luciferase activity was measured using the Dual Luciferase Reporter Assay System (Promega) according to the manufacturer's instructions. In the measurement experiment, firefly luciferase activity was normalized to Renilla luciferase activity. To investigate the concentration-dependent effect of DTMB drug, EC50 values were measured by treating various concentrations of DTMB.

[1] = biological target: T2, HIS-tagged recombinant PPAR γ protein (Homo sapiens, UniProt P37231); test: CNBr-drug and protein binding experiment, PPARγ; conditions: Western blotting after 24 h incubation
T2 sequence (P37231 238-503 limits assumed): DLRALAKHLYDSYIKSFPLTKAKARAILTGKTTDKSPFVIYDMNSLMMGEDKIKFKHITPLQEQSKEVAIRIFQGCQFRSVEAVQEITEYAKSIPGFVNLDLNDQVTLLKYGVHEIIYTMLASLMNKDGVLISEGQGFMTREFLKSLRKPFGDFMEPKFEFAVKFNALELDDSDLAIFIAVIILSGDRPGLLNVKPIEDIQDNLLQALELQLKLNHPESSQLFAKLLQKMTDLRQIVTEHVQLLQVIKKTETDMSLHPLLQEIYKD
Protocol: Since the computer prediction program predicted that DTMB binds to PPAR transcription factors, CNBr-drug and protein binding experiments were conducted to confirm whether DTMB actually binds to PPAR. To determine the actual degree of drug-protein binding, the reaction of the protein of the PPAR-α, β/δ, γ ligand-binding portion with the DTMB drug-bound CNBr beads was confirmed through Western blotting.
Specifically, CNBr Sepharose 4B beads were prepared and activated according to the instructions. 100 mg of CNBr-activated Sepharose 4B beads were incubated with drugs or DMSO at 4° C. for 18 h. The drug-bound beads reacted with HIS-tagged recombinant PPAR α, β/δ, and γ proteins. After 24 h of incubation, Western blotting experiments were performed to confirm whether the recombinant proteins bound to the drug-bound beads.

BV2 cell line = test: Cell viability assay (MTT), BV2; assay type: cell-based, mouse; conditions: BV2, 48 h, at higher concentrations
Protocol: Cell viability was measured by a chromogenic assay that biologically reduces 3-(4,5-dimethyl-thiazol-2-yl)-2,5-diphenyltetrazolium bromide (MTT) to formazan in living cells. Briefly, cells were cultured in 96-well plates in a final volume of 100 μL. After 24 h, the culture medium was replaced with fresh medium containing DTMB compound, and the cells were cultured for another 48 h. Next, MTT (dissolved in PBS at 5 mg/mL) was added to the culture medium. The cells were cultured in the dark at 37° C. for 1 h, and then the supernatant was removed from the wells. The formazan crystals were dissolved by adding total MTT solvent (4 mM HCl and 0.1% Nonidet P-40, both dissolved in isopropanol), and the absorbance was measured at 570 nm using a microplate reader, Infinite 200 Pro NanoQuant microplate reader (TECAN, Switzerland).

BV2 microglial cell line = test: Cytokine ELISA in BV2 microglia; assay type: cell-based, mouse; conditions: BV2 treated with LPS or Aβ aggregates, DTMB 24 h
Protocol: To confirm a more clear anti-inflammatory effect, the microglia cell line (BV2) and microglia isolated from mice were treated with lipopolysaccharide (LPS) and Aβ aggregates to induce an inflammatory response, and then DTMB was treated to measure the decrease in cytokine levels in microglia by DTMB treatment using ELISA.
The BV2 mouse microglia cell line was provided by Professor Seok Kyung-ho of Kyungpook National University. BV2 cells were cultured in a 5% CO2 incubator with a humidified atmosphere at 37° C. with Dulbecco's Modified Eagle Medium (DMEM) (Hyclone, Logan, UT, USA) containing 5% fetal bovine serum (FBS, Hyclone) and 50 μg/mL gentamicin (Lonza, Switzerland).
Cytokine levels (TNF-α, IL-1β, and IL-6) were measured in the media of BV2 microglia and primary microglia treated with LPS (1 μg/mL) and human Aβ1-42 (5 μg/mL). Human Aβ1-42 (AnaSpec, Fremont, CA, USA) was pre-aggregated in the culture medium for 24 h before cell treatment. BV2 cells and primary microglia were seeded in 12-well plates (SPL) at a density of 1× 10^5 cells/well in 1 mL of complete medium. After 12 h, cells were treated with LPS or human Aβ1-42 and further cultured with DTMB for 24 h. […]

Compound: COc1ccc(-c2cc(=O)oc3c(C)c(OC(=O)[C@H](Cc4c[nH]c5ccccc45)NC(=O)OC(C)(C)C)ccc23)cc1 [DTMB, [4-(4-Methoxyphenyl)-8-methyl-2-oxochromen-7-yl](2S)-3-(1H-indol-3-yl)-2-[(2-methylpropan-2-yl)oxycarbonylamino]propanoate]
- PPARα activation versus positive control (PPARα): activated at a lower concentration than WY14643
- Binding of PPARγ ligand-binding protein to drug-bound CNBr beads [1]: binds to all subtypes of PPAR
- Cytotoxicity (MTT) (BV2 cell line): no cytotoxicity
- Level of IL-6 (BV2 microglial cell line): statistically significantly reduced
- Level of TNF-α (BV2 microglial cell line): statistically significantly reduced
